Data as given in ChEMBL document CHEMBL1138197, “Dopamine/serotonin receptor ligands. 12(1): SAR studies on hexahydro-dibenz[d,g]azecines lead to 4-chloro-7-methyl-5,6,7,8,9,14-hexahydrodibenz[d,g]azecin-3-ol, the first picomolar D5-selective dopamine-receptor antagonist” (J Med Chem, 2006).

Assays:
D(1A) dopamine receptor [1] = molecular target: T1, D(1A) dopamine receptor (Homo sapiens, UniProt P21728); assay: Displacement of [3H]SCH 23390 from D1 dopamine receptor
D(2) dopamine receptor [2] = molecular target: T2, D(2) dopamine receptor (Homo sapiens, UniProt P14416); assay: Displacement of [3H]spiperone from D2L dopamine receptor
T2 sequence (P14416 whole entry): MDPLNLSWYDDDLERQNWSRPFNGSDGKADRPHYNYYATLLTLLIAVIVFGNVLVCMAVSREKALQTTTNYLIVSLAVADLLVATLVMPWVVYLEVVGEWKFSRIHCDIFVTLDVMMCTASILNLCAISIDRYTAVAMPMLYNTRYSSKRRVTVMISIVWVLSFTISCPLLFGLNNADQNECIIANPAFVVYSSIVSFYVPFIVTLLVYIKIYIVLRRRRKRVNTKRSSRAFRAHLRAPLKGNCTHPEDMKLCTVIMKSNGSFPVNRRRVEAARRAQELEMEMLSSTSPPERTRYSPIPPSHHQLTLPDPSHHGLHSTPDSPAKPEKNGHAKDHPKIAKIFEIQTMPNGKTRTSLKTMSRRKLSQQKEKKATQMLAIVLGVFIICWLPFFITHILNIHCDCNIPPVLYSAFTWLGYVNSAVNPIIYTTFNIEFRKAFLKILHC

D(3) dopamine receptor = D(3) dopamine receptor (Homo sapiens, UniProt P35462); assay: Binding affinity to D3 dopamine receptor by radioligand binding assay
Chain of D(3) dopamine receptor (P35462 whole entry): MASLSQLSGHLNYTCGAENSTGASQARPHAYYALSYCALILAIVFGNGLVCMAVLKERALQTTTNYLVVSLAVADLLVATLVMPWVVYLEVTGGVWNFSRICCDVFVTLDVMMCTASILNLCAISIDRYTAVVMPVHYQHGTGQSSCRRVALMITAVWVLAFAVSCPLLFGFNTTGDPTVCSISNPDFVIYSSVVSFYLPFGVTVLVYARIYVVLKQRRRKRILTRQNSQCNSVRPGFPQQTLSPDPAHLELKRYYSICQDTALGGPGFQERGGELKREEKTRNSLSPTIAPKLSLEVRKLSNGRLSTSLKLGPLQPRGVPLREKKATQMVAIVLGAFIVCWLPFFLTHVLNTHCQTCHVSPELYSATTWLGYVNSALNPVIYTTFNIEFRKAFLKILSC

D(1B) dopamine receptor [3] = molecular target: T3, D(1B) dopamine receptor (Homo sapiens, UniProt P21918); assay: Binding affinity to D5 dopamine receptor by radioligand binding assay
T3 sequence (P21918 whole entry): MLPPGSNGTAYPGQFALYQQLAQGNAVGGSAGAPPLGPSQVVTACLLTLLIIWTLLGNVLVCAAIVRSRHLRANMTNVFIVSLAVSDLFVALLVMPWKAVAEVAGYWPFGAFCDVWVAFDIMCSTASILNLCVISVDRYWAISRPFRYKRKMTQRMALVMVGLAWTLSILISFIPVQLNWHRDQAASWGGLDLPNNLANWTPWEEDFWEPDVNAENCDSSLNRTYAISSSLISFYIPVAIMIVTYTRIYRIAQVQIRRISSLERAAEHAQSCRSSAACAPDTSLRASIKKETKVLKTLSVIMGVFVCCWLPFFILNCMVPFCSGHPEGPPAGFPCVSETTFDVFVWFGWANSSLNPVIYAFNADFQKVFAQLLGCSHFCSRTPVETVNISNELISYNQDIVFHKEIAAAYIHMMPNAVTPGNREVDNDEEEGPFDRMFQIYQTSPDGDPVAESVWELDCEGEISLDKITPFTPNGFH

D(1A) dopamine receptor [4] = molecular target: T1, D(1A) dopamine receptor; assay: Inhibition of D1 dopamine receptor in HEK 293 cells by intracellular calcium assay; format: functional, cell-based, HEK293
D(2) dopamine receptor [5] = molecular target: T2, D(2) dopamine receptor; assay: Inhibition of D2L dopamine receptor in HEK 293 cells by intracellular calcium assay; format: functional, cell-based, HEK293
D(1B) dopamine receptor [6] = molecular target: T3, D(1B) dopamine receptor; assay: Inhibition of D5 dopamine receptor in HEK 293 cells by intracellular calcium assay; format: functional, cell-based, HEK293
D(4) dopamine receptor = molecular target: T4, D(4) dopamine receptor (Homo sapiens, UniProt P21917); assay: Binding affinity to D4 dopamine receptor by radioligand binding assay
T4 sequence (P21917 whole entry): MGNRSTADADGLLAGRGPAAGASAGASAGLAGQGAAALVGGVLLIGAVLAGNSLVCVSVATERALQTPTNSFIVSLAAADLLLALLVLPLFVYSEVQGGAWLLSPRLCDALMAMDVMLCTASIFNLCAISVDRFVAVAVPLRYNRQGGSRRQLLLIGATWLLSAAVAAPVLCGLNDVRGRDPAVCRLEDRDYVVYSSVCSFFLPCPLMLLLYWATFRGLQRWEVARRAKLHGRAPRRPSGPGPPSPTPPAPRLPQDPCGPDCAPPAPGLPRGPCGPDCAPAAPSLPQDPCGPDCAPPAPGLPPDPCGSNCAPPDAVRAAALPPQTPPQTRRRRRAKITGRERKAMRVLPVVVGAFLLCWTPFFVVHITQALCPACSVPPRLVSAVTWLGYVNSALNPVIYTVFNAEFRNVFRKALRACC

T1 sequence (P21728 whole entry): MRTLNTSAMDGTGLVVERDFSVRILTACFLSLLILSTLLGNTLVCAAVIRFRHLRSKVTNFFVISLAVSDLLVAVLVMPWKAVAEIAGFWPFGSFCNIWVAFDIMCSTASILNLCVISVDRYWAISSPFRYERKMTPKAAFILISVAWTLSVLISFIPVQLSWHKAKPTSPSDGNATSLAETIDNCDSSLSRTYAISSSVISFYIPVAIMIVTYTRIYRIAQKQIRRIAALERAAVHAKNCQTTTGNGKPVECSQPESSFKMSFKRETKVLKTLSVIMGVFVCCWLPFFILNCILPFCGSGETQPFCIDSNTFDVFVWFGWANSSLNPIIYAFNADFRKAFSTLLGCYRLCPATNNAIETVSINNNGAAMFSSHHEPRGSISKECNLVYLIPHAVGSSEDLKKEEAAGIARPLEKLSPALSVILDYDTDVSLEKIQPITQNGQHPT

SMILES | Ki (D(1A) dopamine receptor [1]) | Ki (D(2) dopamine receptor [2]) | Ki (D(3) dopamine receptor) | Ki (D(1B) dopamine receptor [3]) | Ki (D(1A) dopamine receptor [4]) | Ki (D(2) dopamine receptor [5]) | Ki (D(1B) dopamine receptor [6]) | Ki (D(4) dopamine receptor)
COc1ccc2c(c1)Cc1ccccc1CCN(C)CC2 | 82 nM | 62 nM | 151 nM |  | 567 nM | 21.1 nM | 1050 nM | 
CN1CCc2cc(O)ccc2Cc2ccc(O)cc2CC1 | 2 nM | 58.7 nM | 342 nM | 1.68 nM | 3.3 nM | 19 nM | 0.54 nM | 
CN1CCc2ccccc2Cc2[nH]c3ccccc3c2CC1 | 1.9 nM | 44.7 nM |  | 7.5 nM |  | 19 nM | 12.7 nM | 
COc1ccc2c(c1)CCN(C)CCc1ccccc1C2 | 28.5 nM | 13 nM | 75.7 nM |  | 24.1 nM | 0.55 nM | 7.2 nM | 
CN1CCc2ccccc2Cc2c(ccc(O)c2Cl)CC1 | 0.46 nM | 0.99 nM | 1.88 nM | 0.98 nM | 6.8 nM | 0.13 nM | 1.6 nM | 
CN1CCc2ccccc2Cc2cc(N)c(O)cc2CC1 | 9.3 nM | 37.3 nM |  | 226 nM | 20.9 nM | 26.1 nM | 39.5 nM | 
CN1CCc2ccccc2Cc2cc(O)c(Cl)cc2CC1 | 3.1 nM | 2 nM | 27.7 nM | 4.9 nM | 10.8 nM | 4.8 nM | 3.1 nM | 

Other lines, results leading:

Ki (D(1A) dopamine receptor [1]) | Ki (D(2) dopamine receptor [2]) | Ki (D(3) dopamine receptor) | Ki (D(1B) dopamine receptor [3]) | Ki (D(1A) dopamine receptor [4]) | Ki (D(2) dopamine receptor [5]) | Ki (D(1B) dopamine receptor [6]) | Ki (D(4) dopamine receptor) | SMILES
9.4 nM | 6.5 nM | 102 nM | 12.6 nM | 26.9 nM | 0.62 nM | 11.5 nM |  | COc1ccc2c(c1)CCN(C)CCc1cc(OC)ccc1C2
7.6 nM | 164 nM | 1830 nM |  | 37.6 nM | 39.9 nM | 54.6 nM |  | COc1cccc2c1Cc1ccccc1CCN(C)CC2
3.2 nM | 88 nM |  |  | 3.8 nM | 37.5 nM | 1.2 nM |  | CN1CCc2ccccc2Cc2cc(Cl)c(O)c(Cl)c2CC1
25.3 nM | 210 nM | 415 nM |  | 34 nM | 2.5 nM | 59 nM |  | COc1c(Cl)cc2c(c1Cl)Cc1ccccc1CCN(C)CC2
8.7 nM | 84 nM | 215 nM |  | 64.1 nM | 7.9 nM | 10.4 nM |  | CN1CCc2ccccc2Cc2c(O)cccc2CC1
8.9 nM | 36.9 nM | 296 nM | 42.3 nM | 2.6 nM | 19 nM | 37.5 nM |  | CN1CCc2ccccc2Cc2cc(O)ccc2CC1
0.83 nM | 4 nM | 24.6 nM | 0.057 nM | 0.46 nM | 6.1 nM | 0.053 nM | 5.2 nM | CN1CCc2ccccc2Cc2ccc(O)c(Cl)c2CC1
